From publication PMC7872314, “Modeling Bioavailable Concentrations in Zebrafish Cell Lines and Embryos Increases the Correlation of Toxicity Potencies across Test Systems” (Environmental Science & Technology, 2020)
Like-named read-outs stand apart in the source and are kept apart here.

Legend:
[1] = system: ZFL (hepatocytes) cell line; experiment: cells; type: cell-based, zebrafish (Danio rerio); conditions: Danio rerio, Hepatocyte
[2] = ref Comptox, PubChem or DrugBank; cited from earlier work
[3] = system: ZFL (hepatocytes) cell line; experiment: cells; type: cell-based, zebrafish (Danio rerio); conditions: Danio rerio, Hepatocyte; remark: listed apart in the source
[4] = system: ZFL (hepatocytes) cell line; experiment: cells; type: cell-based, zebrafish (Danio rerio); conditions: Danio rerio, Hepatocyte; remark: listed apart in the source
[5] = system: ZF4 (fibroblasts) cell line; experiment: Neutral red, absorbance (NRa), AB/CFDA/NR multiplex, lysosome stability; type: cell-based, zebrafish (Danio rerio); conditions: Danio rerio, Fibroblast
[6] = system: diverse mammalian cell assay results; design: method as in https://comptox.epa.gov/dashboard/; conditions: COMPTOX; ref https://comptox.epa.gov/dashboard/; read-out: median AC50; cited from earlier work
[7] = system: ZF4 (fibroblasts) cell line; experiment: MTS assay (MTS/BCA multiplex), NAD(P)H metabolism; type: cell-based, zebrafish (Danio rerio); conditions: Danio rerio, Fibroblast
[8] = system: ZF4 (fibroblasts) cell line; experiment: BCA assay (MTS/BCA multiplex), protein amount; type: cell-based, zebrafish (Danio rerio); conditions: Danio rerio, Fibroblast
[9] = system: ZFL (hepatocytes) cell line; experiment: cells; type: cell-based, zebrafish (Danio rerio); conditions: Danio rerio, Hepatocyte; remark: listed apart in the source
[10] = system: ZFL (hepatocytes) cell line; experiment: cells; type: cell-based, zebrafish (Danio rerio); conditions: Danio rerio, Hepatocyte; remark: listed apart in the source
[11] = system: ZFL (hepatocytes) cell line; experiment: cells; type: cell-based, zebrafish (Danio rerio); conditions: Danio rerio, Hepatocyte; remark: listed apart in the source
ZF4 and ZFL cell lines = experiment: Cytotoxicity assays, all endpoints, both cell lines (mean/range); type: cell-based, zebrafish (Danio rerio); conditions: 48 h
[12] = system: ZF4 (fibroblasts) cell line; experiment: ATP assay (ATP/LDH multiplex), ATP metabolism; type: cell-based, zebrafish (Danio rerio); conditions: Danio rerio, Fibroblast
[13] = system: ZFL (hepatocytes) cell line; experiment: cells; type: cell-based, zebrafish (Danio rerio); conditions: Danio rerio, Hepatocyte; remark: listed apart in the source
[14] = system: ZF4 (fibroblasts) cell line; experiment: CFDA endpoint of AB/CFDA/NR multiplex, membrane stability; type: cell-based, zebrafish (Danio rerio); conditions: Danio rerio, Fibroblast
[15] = system: ZF4 (fibroblasts) cell line; experiment: alamarBlue (AB) endpoint of AB/CFDA/NR multiplex, cellular respiration; type: cell-based, zebrafish (Danio rerio); conditions: Danio rerio, Fibroblast
[16] = system: ZF4 (fibroblasts) cell line; experiment: Neutral red, fluorescence (NRf), AB/CFDA/NR multiplex, lysosome stability; type: cell-based, zebrafish (Danio rerio); conditions: Danio rerio, Fibroblast
zebrafish embryos [17] = system: zebrafish embryos; design: method as in earlier work; conditions: nominal, cited from earlier work
zebrafish embryos [18] = experiment: animal or person; type: in vivo, zebrafish (Danio rerio); conditions: for EC50: Danio rerio

Molecule `CCCSc1ccc2nc(NC(=O)OC)[nH]c2c1` [Albendazole, albendazole] has an IC50 ([1]; NR-fluo - ZFL, log10 of IC50, read-out: LogIC50 (converted)) of 0.724 µM, an IC50 ([1]; NR-fluo - ZFL, read-out: IC50) of 0.724 µM and an IC50 ([1]; ZFL, 48 h exposure, nominal, log10, read-out: logIC50 (log10 IC50;nom) NRf (converted)) of 0.724 µM. The IC50 ([1]; ZFL, 48 h exposure, nominal, read-out: IC50;nom NRf) was 0.724 µM, the BCF [2] was 41.2 and the Physiological charge [2] was 0. For the same molecule, the logKoa [2] was 9.35, the logKow [2] was 3.07 and the “pKa (Strongest Acidic)” value [2] was 9.51. For the same molecule, the “pKa (Strongest Basic)” value [2] was 4.27, the “w_solubility (water solubility)” value [2] was 85.2 µM and the IC50 ([3]; MTS - ZFL, log10 of IC50, read-out: LogIC50 (converted)) was 0.418 µM. For the same molecule, the IC50 ([3]; MTS - ZFL, read-out: IC50) was 0.418 µM, the IC50 ([3]; ZFL, 48 h exposure, nominal, log10, read-out: logIC50 (log10 IC50;nom) MTS (converted)) was 0.417 µM and the IC50 ([3]; ZFL, 48 h exposure, nominal, read-out: IC50;nom MTS) was 0.418 µM. The IC50 ([4]; AB - ZFL, log10 of IC50, read-out: LogIC50 (converted)) was 3.72 µM, the IC50 ([4]; AB - ZFL, read-out: IC50) was 3.72 µM and the IC50 ([4]; ZFL, 48 h exposure, nominal, log10, read-out: logIC50 (log10 IC50;nom) AB (converted)) was 3.72 µM. It also gave an IC50 ([4]; ZFL, 48 h exposure, nominal, read-out: IC50;nom AB) of 3.72 µM, an IC50 ([5]; NR-abs - ZF4, log10 of IC50, read-out: LogIC50 (converted)) of 2.36 µM and an IC50 ([5]; NR-abs - ZF4, read-out: IC50) of 2.36 µM. It also gave an IC50 ([5]; ZF4, 48 h exposure, nominal, log10, read-out: logIC50 (log10 IC50;nom) NRa (converted)) of 2.34 µM, an IC50 ([5]; ZF4, 48 h exposure, nominal, read-out: IC50;nom NRa) of 2.36 µM and an IC50 ([5]; ZF4 cell line, NRa endpoint, nominal, read-out: IC50;nom) of 0.63 µg/mL. For the same molecule, the AC50 [6] was 0.41 µM, the IC50 ([7]; MTS - ZF4, log10 of IC50, read-out: LogIC50 (converted)) was 10.1 µM and the IC50 ([7]; MTS - ZF4, read-out: IC50) was 10.1 µM. For the same molecule, the IC50 ([7]; ZF4, 48 h exposure, nominal, log10, read-out: logIC50 (log10 IC50;nom) MTS (converted)) was 10 µM, the IC50 ([7]; ZF4, 48 h exposure, nominal, read-out: IC50;nom MTS) was 10.1 µM and the IC50 ([8]; BCA - ZF4, log10 of IC50, read-out: LogIC50 (converted)) was 0.555 µM. For the same molecule, the IC50 ([8]; BCA - ZF4, read-out: IC50) was 0.555 µM, the IC50 ([8]; ZF4, 48 h exposure, nominal, log10, read-out: logIC50 (log10 IC50;nom) BCA (converted)) was 0.55 µM and the IC50 ([8]; ZF4, 48 h exposure, nominal, read-out: IC50;nom BCA) was 0.555 µM. It also gave an IC50 ([9]; CFDA - ZFL, log10 of IC50, read-out: LogIC50 (converted)) of 221 µM, an IC50 ([9]; CFDA - ZFL, read-out: IC50) of 221 µM and an IC50 ([9]; ZFL, 48 h exposure, nominal, log10, read-out: logIC50 (log10 IC50;nom) CFDA (converted)) of 219 µM. The IC50 ([9]; ZFL, 48 h exposure, nominal, read-out: IC50;nom CFDA) was 221 µM, the IC50 ([10]; BCA - ZFL, log10 of IC50, read-out: LogIC50 (converted)) was 0.0309 µM and the IC50 ([10]; BCA - ZFL, read-out: IC50) was 0.0309 µM. For the same molecule, the IC50 ([10]; ZFL, 48 h exposure, nominal, log10, read-out: logIC50 (log10 IC50;nom) BCA (converted)) was 0.0309 µM, the IC50 ([10]; ZFL, 48 h exposure, nominal, read-out: IC50;nom BCA) was 0.0309 µM and the IC50 ([11]; ATP - ZFL, log10 of IC50, read-out: LogIC50 (converted)) was 0.542 µM. The IC50 ([11]; ATP - ZFL, read-out: IC50) was 0.542 µM, the IC50 ([11]; ZFL, 48 h exposure, nominal, log10, read-out: logIC50 (log10 IC50;nom) ATP (converted)) was 0.537 µM and the IC50 ([11]; ZFL, 48 h exposure, nominal, read-out: IC50;nom ATP) was 0.542 µM. The IC50 (ZF4 and ZFL cell lines; Danio rerio, read-out: Mean log IC50nom, mean of all cytotoxicity endpoints (without LDH) in ZF4 and ZFL, 48 h, log10 (converted)) was 2.51 µM, the “Mean log IC50nom” value (ZF4 and ZFL cell lines; mean of all cytotoxicity endpoints (without LDH) in ZF4 and ZFL, log10, listed as Abz) was -5.604 M and the IC50 ([12]; ATP - ZF4, log10 of IC50, read-out: LogIC50 (converted)) was 3.25 µM. The IC50 ([12]; ATP - ZF4, read-out: IC50) was 3.25 µM, the IC50 ([12]; ZF4, 48 h exposure, nominal, log10, read-out: logIC50 (log10 IC50;nom) ATP (converted)) was 3.24 µM and the IC50 ([12]; ZF4, 48 h exposure, nominal, read-out: IC50;nom ATP) was 3.25 µM. For the same molecule, the IC50 ([13]; NR-abs - ZFL, log10 of IC50, read-out: LogIC50 (converted)) was 0.904 µM, the IC50 ([13]; NR-abs - ZFL, read-out: IC50) was 0.904 µM and the IC50 ([13]; ZFL, 48 h exposure, nominal, log10, read-out: logIC50 (log10 IC50;nom) NRa (converted)) was 0.912 µM. For the same molecule, the IC50 ([13]; ZFL, 48 h exposure, nominal, read-out: IC50;nom NRa) was 0.904 µM, the IC50 ([14]; CFDA - ZF4, log10 of IC50, read-out: LogIC50 (converted)) was 75.4 µM and the IC50 ([14]; CFDA - ZF4, read-out: IC50) was 75.4 µM. It also gave an IC50 ([14]; ZF4, 48 h exposure, nominal, log10, read-out: logIC50 (log10 IC50;nom) CFDA (converted)) of 75.9 µM, an IC50 ([14]; ZF4, 48 h exposure, nominal, read-out: IC50;nom CFDA) of 75.4 µM and an IC50 ([15]; AB - ZF4, log10 of IC50, read-out: LogIC50 (converted)) of 7.79 µM. For the same molecule, the IC50 ([15]; AB - ZF4, read-out: IC50) was 7.79 µM, the IC50 ([15]; ZF4, 48 h exposure, nominal, log10, read-out: logIC50 (log10 IC50;nom) AB (converted)) was 7.76 µM and the IC50 ([15]; ZF4, 48 h exposure, nominal, read-out: IC50;nom AB) was 7.79 µM. For the same molecule, the IC50 ([16]; NR-fluo - ZF4, log10 of IC50, read-out: LogIC50 (converted)) was 3.61 µM, the IC50 ([16]; NR-fluo - ZF4, read-out: IC50) was 3.61 µM and the IC50 ([16]; ZF4, 48 h exposure, nominal, log10, read-out: logIC50 (log10 IC50;nom) NRf (converted)) was 3.63 µM. The IC50 ([16]; ZF4, 48 h exposure, nominal, read-out: IC50;nom NRf) was 3.61 µM, the EC50 (zebrafish embryos [17]; 144 hpf, converted) was 0.158 µM and the “logEC50 144 hpf” value (zebrafish embryos [17]; log10) was -6.8 M. The “difference in toxicity (EC50;nom) between 48 hpf and 144 hpf” value (zebrafish embryos [18]; 48 hpf time point less sensitive than 144 hpf) was “approximately the same”, the “log EC50;nom (mFET)” value (zebrafish embryos [18]; 48 hpf, nominal, log10, listed as Abz) was -6.783 M and the EC50 (zebrafish embryos [18]; 48 hpf, nominal, log10, read-out: log EC50;nom (mFET) (converted)) was 0.166 µM. It also gave an EC50 (zebrafish embryos [18]; 48 hpf, nominal, read-out: EC50;nom (embryo)) of 0.05 µg/mL, an EC50 (zebrafish embryos [18]; read-out: EC50 48hpf) of 0.165 µM and an EC50 (zebrafish embryos [18]; read-out: EC50;nom (mFET)) of 0.165 µM.
